Test results from ChEMBL document CHEMBL1201861, “Genomics of Drug Sensitity in Cancer screening data, Wellcome Trust Sanger Institute”.
Structures can show the parent of a compound that is named as a salt.

How the values were obtained:
Assay in all cases: cells
[1] = tested on: COR-L88; type: functional, cell-based, Homo sapiens; details: Homo sapiens, COR-L88;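 also: growth inhibition of COR-L88 cells, read out with a cell viability assay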
Description: SANGER: Inhibition of human COR-L88 cell growth in a cell viability assay.

[2] = tested on: CTB-1; type: functional, cell-based, Homo sapiens; details: Homo sapiens, CTB-1
Description: SANGER: Inhibition of human CTB-1 cell growth in a cell viability assay.

[3] = tested on: CW-2; type: functional, cell-based, Homo sapiens; details: Homo sapiens, CW-2;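 also: growth inhibition of CW-2 cells, read out by a cell viability assay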
Description: SANGER: Inhibition of human CW-2 cell growth in a cell viability assay.

[4] = tested on: DMS-79; type: functional, cell-based, Homo sapiens; details: Homo sapiens, DMS-79;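 also: growth inhibition measured with a cell viability assay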
Description: SANGER: Inhibition of human DMS-79 cell growth in a cell viability assay.

[5] = tested on: DSH1; type: functional, cell-based, Homo sapiens; details: Homo sapiens, DSH1;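 also: growth inhibition of human DSH1 cells, measured with a cell viability readout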
Description: SANGER: Inhibition of human DSH1 cell growth in a cell viability assay.

[6] = tested on: ES3; type: functional, cell-based, Homo sapiens; details: Homo sapiens, ES3;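 also: growth inhibition of ES3 cells, read out with a cell viability assay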
Description: SANGER: Inhibition of human ES3 cell growth in a cell viability assay.

[7] = tested on: EW-11; type: functional, cell-based, Homo sapiens; details: Homo sapiens, EW-11;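 also: growth inhibition of human EW-11 cells, measured with a cell viability assay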
Description: SANGER: Inhibition of human EW-11 cell growth in a cell viability assay.

[8] = tested on: EW-13; type: functional, cell-based, Homo sapiens; details: Homo sapiens, EW-13;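 also: growth inhibition of EW-13 cells, read out with a cell viability assay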
Description: SANGER: Inhibition of human EW-13 cell growth in a cell viability assay.

[9] = tested on: GAK; type: functional, cell-based, Homo sapiens; details: Homo sapiens, GAK;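 also: cell growth inhibition read out by a cell viability assay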
Description: SANGER: Inhibition of human GAK cell growth in a cell viability assay.

[10] = tested on: HAL-01; type: functional, cell-based, Homo sapiens; details: Homo sapiens, HAL-01;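 also: growth inhibition of human HAL-01 cells, read out with a cell viability assay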
Description: SANGER: Inhibition of human HAL-01 cell growth in a cell viability assay.

[11] = tested on: HCC 2998; type: functional, cell-based, Homo sapiens; details: Homo sapiens, HCC 2998;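 also: growth inhibition of human HCC2998 cells, measured with a cell viability read-out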
Description: SANGER: Inhibition of human HCC2998 cell growth in a cell viability assay.

[12] = tested on: HD-MY-Z; type: functional, cell-based, Homo sapiens; details: Homo sapiens, HD-MY-Z;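 also: growth inhibition of HD-MY-Z cells, read out with a cell viability assay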
Description: SANGER: Inhibition of human HD-MY-Z cell growth in a cell viability assay.

[13] = tested on: HH; type: functional, cell-based, Homo sapiens; details: Homo sapiens, HH
Description: SANGER: Inhibition of human HH cell growth in a cell viability assay.

[14] = tested on: HL-60; type: functional, cell-based, Homo sapiens; details: Homo sapiens, HL-60;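 also: growth inhibition of human HL-60 cells, read out with a cell viability assay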
Description: SANGER: Inhibition of human HL-60 cell growth in a cell viability assay.

[15] = tested on: JAR; type: functional, cell-based, Homo sapiens; details: Homo sapiens, JAR;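 also: growth inhibition of human JAR cells determined with a cell viability assay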
Description: SANGER: Inhibition of human JAR cell growth in a cell viability assay.

[16] = tested on: K562; type: functional, cell-based, Homo sapiens; details: Homo sapiens, K562
Description: SANGER: Inhibition of human K-562 cell growth in a cell viability assay.

[17] = tested on: KM12; type: functional, cell-based, Homo sapiens; details: Homo sapiens, KM12;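 also: KM12 cell growth inhibition, read out with a cell viability assay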
Description: SANGER: Inhibition of human KM12 cell growth in a cell viability assay.

[18] = tested on: KMOE-2; type: functional, cell-based, Homo sapiens; details: Homo sapiens, KMOE-2;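 also: growth inhibition of human KMOE-2 cells, read out with a cell viability assay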
Description: SANGER: Inhibition of human KMOE-2 cell growth in a cell viability assay.

[19] = tested on: KU812 cell line; type: functional, cell-based, Homo sapiens; details: Homo sapiens, KU812;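 also: growth inhibition of KU812 cells, read out with a cell viability assay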
Description: SANGER: Inhibition of human KU812 cell growth in a cell viability assay.

[20] = tested on: KURAMOCHI; type: functional, cell-based, Homo sapiens; details: Homo sapiens, KURAMOCHI;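 also: growth inhibition of KURAMOCHI cells, read out with a cell viability assay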
Description: SANGER: Inhibition of human KURAMOCHI cell growth in a cell viability assay.

[21] = tested on: LAMA-84; type: functional, cell-based, Homo sapiens; details: Homo sapiens, LAMA-84;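 also: growth inhibition of LAMA-84 cells, read out with a cell viability assay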
Description: SANGER: Inhibition of human LAMA-84 cell growth in a cell viability assay.

[22] = tested on: LC-2-ad; type: functional, cell-based, Homo sapiens; details: Homo sapiens, LC-2-ad;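 also: growth inhibition of human LC-2-ad cells, read out with a cell viability assay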
Description: SANGER: Inhibition of human LC-2-ad cell growth in a cell viability assay.

[23] = tested on: LS-123; type: functional, cell-based, Homo sapiens; details: Homo sapiens, LS-123
Description: SANGER: Inhibition of human LS-123 cell growth in a cell viability assay.

[24] = tested on: LS-513; type: functional, cell-based, Homo sapiens; details: Homo sapiens, LS-513
Description: SANGER: Inhibition of human LS-513 cell growth in a cell viability assay.

[25] = tested on: MC116; type: functional, cell-based, Homo sapiens; details: Homo sapiens, MC116;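 also: growth inhibition of MC116 cells, read out with a cell viability assay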
Description: SANGER: Inhibition of human MC116 cell growth in a cell viability assay.

[26] = tested on: MFM-223; type: functional, cell-based, Homo sapiens; details: Homo sapiens, MFM-223
Description: SANGER: Inhibition of human MFM-223 cell growth in a cell viability assay.

[27] = tested on: MLMA; type: functional, cell-based, Homo sapiens; details: Homo sapiens, MLMA;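 also: growth inhibition of MLMA cells (human), determined through a cell viability readout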
Description: SANGER: Inhibition of human MLMA cell growth in a cell viability assay.

[28] = tested on: MS-1; type: functional, cell-based, Homo sapiens; details: Homo sapiens, MS-1;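 also: growth inhibition of MS-1 cells, read out by cell viability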
Description: SANGER: Inhibition of human MS-1 cell growth in a cell viability assay.

[29] = tested on: NCI-H1092; type: functional, cell-based, Homo sapiens; details: Homo sapiens, NCI-H1092;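 also: cell growth inhibition measured with a cell viability assay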
Description: SANGER: Inhibition of human NCI-H1092 cell growth in a cell viability assay.

[30] = tested on: NCI-H69; type: functional, cell-based, Homo sapiens; details: Homo sapiens, NCI-H69;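 also: growth inhibition of the cell line, read out with a cell viability assay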
Description: SANGER: Inhibition of human NCI-H69 cell growth in a cell viability assay.

[31] = tested on: NH-12; type: functional, cell-based, Homo sapiens; details: Homo sapiens, NH-12;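 also: growth inhibition of NH-12 cells, read out with a cell viability assay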
Description: SANGER: Inhibition of human NH-12 cell growth in a cell viability assay.

[32] = tested on: OCUB-M; type: functional, cell-based, Homo sapiens; details: Homo sapiens, OCUB-M;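 also: growth inhibition of the cancer cell line, read out through a cell viability assay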
Description: SANGER: Inhibition of human OCUB-M cell growth in a cell viability assay.

[33] = tested on: ONS-76; type: functional, cell-based, Homo sapiens; details: Homo sapiens, ONS-76;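 also: growth inhibition of human ONS-76 cells, read out with a cell viability assay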
Description: SANGER: Inhibition of human ONS-76 cell growth in a cell viability assay.

[34] = tested on: OS-RC-2; type: functional, cell-based, Homo sapiens; details: Homo sapiens, OS-RC-2;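 also: growth inhibition of human OS-RC-2 cells, measured by a cell viability assay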
Description: SANGER: Inhibition of human OS-RC-2 cell growth in a cell viability assay.

[35] = tested on: P30-OHK; type: functional, cell-based, Homo sapiens; details: Homo sapiens, P30-OHK;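 also: growth inhibition of the P30-OHK cell line, read out with a cell viability assay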
Description: SANGER: Inhibition of human P30-OHK cell growth in a cell viability assay.

[36] = tested on: QIMR-WIL; type: functional, cell-based, Homo sapiens; details: Homo sapiens, QIMR-WIL;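 also: growth inhibition of QIMR-WIL cells, read out with a cell viability assay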
Description: SANGER: Inhibition of human QIMR-WIL cell growth in a cell viability assay.

[37] = tested on: SBC-1; type: functional, cell-based, Homo sapiens; details: Homo sapiens, SBC-1;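 also: cell viability assay measuring growth inhibition of the SBC-1 cell line, IC50 being the concentration that halves growth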
Description: SANGER: Inhibition of human SBC-1 cell growth in a cell viability assay.

[38] = tested on: SK-MEL-2; type: functional, cell-based, Homo sapiens; details: Homo sapiens, SK-MEL-2;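 also: growth inhibition of human SK-MEL-2 cells measured with a cell viability assay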
Description: SANGER: Inhibition of human SK-MEL-2 cell growth in a cell viability assay.

[39] = tested on: SK-UT-1; type: functional, cell-based, Homo sapiens; details: Homo sapiens, SK-UT-1;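 also: growth inhibition of SK-UT-1 cells, measured by a cell viability assay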
Description: SANGER: Inhibition of human SK-UT-1 cell growth in a cell viability assay.

[40] = tested on: SNU-C2B; type: functional, cell-based, Homo sapiens; details: Homo sapiens, SNU-C2B;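 also: cell viability readout used to measure compound-driven suppression of SNU-C2B cell proliferation, IC50 marking half-maximal growth inhibition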
Description: SANGER: Inhibition of human SNU-C2B cell growth in a cell viability assay.

[41] = tested on: SW982; type: functional, cell-based, Homo sapiens; details: Homo sapiens, SW982;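 also: growth inhibition of SW982 cells, read out with a cell viability assay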
Description: SANGER: Inhibition of human SW982 cell growth in a cell viability assay.

[42] = tested on: 8-MG-BA; type: functional, cell-based, Homo sapiens; details: Homo sapiens, 8-MG-BA;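 also: growth inhibition of 8-MG-BA cells, read out with a cell viability assay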
Description: SANGER: Inhibition of human 8-MG-BA cell growth in a cell viability assay.

[43] = tested on: A388; type: functional, cell-based, Homo sapiens; details: Homo sapiens, A388;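 also: growth inhibition of human A388 cells, read out with a cell viability assay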
Description: SANGER: Inhibition of human A388 cell growth in a cell viability assay.

[44] = tested on: TGBC1TKB; type: functional, cell-based, Homo sapiens; details: Homo sapiens, TGBC1TKB;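 also: growth inhibition of TGBC1TKB cells, read out by a cell viability assay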
Description: SANGER: Inhibition of human TGBC1TKB cell growth in a cell viability assay.

[45] = tested on: TGW; type: functional, cell-based, Homo sapiens; details: Homo sapiens, TGW;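 also: growth inhibition of human TGW cells, read out with a cell viability assay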
Description: SANGER: Inhibition of human TGW cell growth in a cell viability assay.

[46] = tested on: U-87 MG; type: functional, cell-based, Homo sapiens, U-87MG ATCC; details: Homo sapiens, U-87 MG;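 also: growth inhibition of the cells measured with a viability assay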
Description: SANGER: Inhibition of human U-87-MG cell growth in a cell viability assay.

[47] = tested on: CGTH-W-1; type: functional, cell-based, Homo sapiens; details: Homo sapiens, CGTH-W-1;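 also: growth inhibition of human CGTH-W-1 cells measured by cell viability assay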
Description: SANGER: Inhibition of human CGTH-W-1 cell growth in a cell viability assay.

[48] = tested on: COLO-668; type: functional, cell-based, Homo sapiens; details: Homo sapiens, COLO-668
Description: SANGER: Inhibition of human COLO-668 cell growth in a cell viability assay.

Compound `N#Cc1c(O)c2c(-c3ccc(-c4ccccc4O)cc3)csc2[nH]c1=O` has an IC50 [1] of 725 nM, an IC50 [2] greater than 1020 nM and an IC50 [3] greater than 1020 nM. The IC50 [4] was greater than 1020 nM, the IC50 [5] was greater than 1020 nM and the IC50 [6] was greater than 1020 nM. For the same compound, the IC50 [7] was greater than 1020 nM, the IC50 [8] was greater than 1020 nM and the IC50 [9] was greater than 1020 nM. For the same compound, the IC50 [10] was greater than 1020 nM, the IC50 [11] was greater than 1020 nM and the IC50 [12] was 148 nM. It also gave an IC50 [13] of 458 nM, an IC50 [14] of 97.4 nM and an IC50 [15] greater than 1020 nM. The IC50 [16] was greater than 1020 nM, the IC50 [17] was 32.1 nM and the IC50 [18] was 397 nM. For the same compound, the IC50 [19] was greater than 1020 nM, the IC50 [20] was greater than 1020 nM and the IC50 [21] was 308 nM. For the same compound, the IC50 [22] was greater than 1020 nM, the IC50 [23] was greater than 1020 nM and the IC50 [24] was greater than 1020 nM. For the same compound, the IC50 [25] was 100 nM, the IC50 [26] was greater than 1020 nM and the IC50 [27] was 234 nM. It also gave an IC50 [28] of 827 nM, an IC50 [29] of 541 nM and an IC50 [30] greater than 1020 nM. It also gave an IC50 [31] of 36.9 nM, an IC50 [32] greater than 1020 nM and an IC50 [33] greater than 1020 nM. The IC50 [34] was greater than 1020 nM, the IC50 [35] was 993 nM and the IC50 [36] was 36.4 nM. It also gave an IC50 [37] greater than 1020 nM, an IC50 [38] greater than 1020 nM and an IC50 [39] greater than 1020 nM. For the same compound, the IC50 [40] was greater than 1020 nM, the IC50 [41] was greater than 1020 nM and the IC50 [42] was greater than 1020 nM. It also gave an IC50 [43] greater than 1020 nM, an IC50 [44] greater than 1020 nM and an IC50 [45] of 311 nM. The IC50 [46] was 333 nM, the IC50 [47] was greater than 1020 nM and the IC50 [48] was greater than 1020 nM.

`Nc1ccn([C@@H]2O[C@H](CO)[C@@H](O)C2(F)F)c(=O)n1` [GEMCITABINE] showed an IC50 [1] greater than 1020 nM, an IC50 [2] of 53.4 nM and an IC50 [3] greater than 1020 nM. The IC50 [4] was greater than 1020 nM, the IC50 [5] was 96.5 nM and the IC50 [6] was 44.6 nM. The IC50 [7] was 434 nM, the IC50 [8] was less than 4 nM and the IC50 [9] was 373 nM. The IC50 [10] was 8.2 nM, the IC50 [11] was 6.34 nM and the IC50 [12] was 6.68 nM. The IC50 [13] was 35.1 nM, the IC50 [14] was 15.7 nM and the IC50 [15] was greater than 1020 nM. The IC50 [16] was 333 nM, the IC50 [17] was 91.5 nM and the IC50 [18] was 155 nM. It also gave an IC50 [19] of 1.91 nM, an IC50 [20] greater than 1020 nM and an IC50 [21] of 115 nM. For the same compound, the IC50 [22] was less than 4 nM, the IC50 [23] was 40.3 nM and the IC50 [24] was 888 nM. The IC50 [25] was 482 nM, the IC50 [26] was greater than 1020 nM and the IC50 [27] was 272 nM. The IC50 [28] was 46.3 nM, the IC50 [29] was greater than 1020 nM and the IC50 [30] was 459 nM. For the same compound, the IC50 [31] was 25.5 nM, the IC50 [32] was 10 nM and the IC50 [33] was 8.68 nM. It also gave an IC50 [34] of 6.68 nM, an IC50 [35] of 1.46 nM and an IC50 [36] of less than 4 nM. The IC50 [37] was 166 nM, the IC50 [38] was greater than 1020 nM and the IC50 [39] was less than 4 nM. It also gave an IC50 [40] greater than 1020 nM, an IC50 [41] of less than 4 nM and an IC50 [42] of 5.93 nM. It also gave an IC50 [43] of 1.36 nM, an IC50 [44] greater than 1020 nM and an IC50 [45] of 200 nM. It also gave an IC50 [46] of 191 nM, an IC50 [47] of 2.72 nM and an IC50 [48] of 2.66 nM.

With `COC1=CC(c2cc3ccccc3[nH]2)=N/C1=C\c1[nH]c(C)cc1C` [OBATOCLAX MESYLATE] the IC50 [1] was greater than 16000 nM, the IC50 [2] was 75.9 nM and the IC50 [3] was greater than 16000 nM. For the same compound, the IC50 [4] was greater than 16000 nM, the IC50 [5] was 4470 nM and the IC50 [6] was 278 nM. For the same compound, the IC50 [7] was 5180 nM, the IC50 [8] was 44.1 nM and the IC50 [9] was less than 62.5 nM. The IC50 [10] was less than 62.5 nM, the IC50 [11] was less than 62.5 nM and the IC50 [12] was 14600 nM. For the same compound, the IC50 [13] was 707 nM, the IC50 [14] was 1260 nM and the IC50 [15] was greater than 16000 nM. The IC50 [16] was 1670 nM, the IC50 [17] was 318 nM and the IC50 [18] was 90.4 nM. The IC50 [19] was 994 nM, the IC50 [20] was 85.1 nM and the IC50 [21] was 2570 nM. For the same compound, the IC50 [22] was 15.8 nM, the IC50 [23] was 87.2 nM and the IC50 [24] was greater than 16000 nM. The IC50 [25] was 113 nM, the IC50 [26] was 3370 nM and the IC50 [27] was 75.3 nM. It also gave an IC50 [28] of 1290 nM, an IC50 [29] of 3080 nM and an IC50 [30] of 4700 nM. The IC50 [31] was 540 nM, the IC50 [32] was 225 nM and the IC50 [33] was 20.4 nM. The IC50 [34] was 431 nM, the IC50 [35] was 240 nM and the IC50 [36] was 132 nM. For the same compound, the IC50 [37] was 3090 nM, the IC50 [38] was 157 nM and the IC50 [39] was 136 nM. It also gave an IC50 [40] of 868 nM, an IC50 [41] of 445 nM and an IC50 [42] of 78 nM. The IC50 [43] was 57 nM, the IC50 [44] was 620 nM and the IC50 [45] was 17.4 nM. It also gave an IC50 [46] of 2290 nM, an IC50 [47] of 399 nM and an IC50 [48] of 1330 nM.
